From patent publication US9745357B2, “Peptides used for treating cancers and, in particular, chronic lymphoid leukaemia” (Centre National de la Recherche Scientifique, priority 2009, dated 2017)

How the values were obtained:
[1] = tested on: B lymphocytes from patients suffering from chronic lymphoid leukemia (CLL); conditions: for cell effect CLL 40 (survival): 4 hours of culture, cells not labeled with annexin or propidium iodide; for effect of the peptide on cell mortality, in words (relative to A1 WT IRS): 40 μM, 4 hours, FIG. 9
Method: Peripheral blood B lymphocytes taken from patients suffering from CLL and then purified on a Ficoll cushion and placed in culture are incubated in the presence of […] of the peptides described for FIG. 2. The percentage cell survival after 4 hours (gray column) or 24 hours (white column) of culture corresponds to the percentage of cells labeled neither with annexin nor with propidium iodide, evaluated by flow cytometry.
The CLL B lymphocytes were obtained from peripheral blood of 18 different patients suffering from chronic lymphoid leukemia. […] The samples were taken in the Brest hospital center, in the hematology department. The blood samples were taken after informing the patients and obtaining their informed consent.
The lymphocytes, mononuclear cells, were isolated from the heparinized peripheral blood samples by Ficoll-Hypaque (LSM 1077 lymphocyte, euro-bio) centrifugation. The red blood cells were lyzed by incubation for 10 min in VersaLyse Lysing Solution (Beckman Coulter). The mononuclear cells are obtained after 2 washes in culture medium (RPMI1640, Gibco BRL).
(§1) The cells were cultured in a culture medium composed either of RPMI 1640 (B lymphocytes) or of DMEM (COS7, HCT116, HGT1, 293, HeLa) containing 10% of FCS (fetal calf serum, 1% of penicillin-streptomycin and 1% of glutamine, Gibco BRL). The cells are distributed in a 24-well plate and cultured at 37° C. in a humid atmosphere under 5% CO2.
(§2) 400 μl of cell suspension (1×10^6 cells/ml) per well were treated for 4 h or 24 h with various concentrations of peptides. The test for activity of the peptides in the presence of emetine (FIG. 6) was carried out by preincubating the cells with 100 μM of emetine for one hour before the addition of peptide.
(§3) After the cells have been washed with PBS, they were analyzed using the Annexin V-FITC IP system according to the supplier's recommendations (Beckman Coulter).
The cells taken from patients suffering from chronic lymphoid leukemia were purified on a Ficoll cushion. […] The cells were placed in culture in RPMI medium in the presence of 10% FCS (fetal calf serum). The peptides were added directly to the culture medium. These peptides comprise the IRS sequence (the amino acid sequence of which is RYIRS) which is known to allow the penetration of peptides into B lymphocytes in culture (Dong et al., 2005). […] The cells which survive the treatment are those which are labeled neither with annexin nor with propidium iodide.

[2] = tested on: control T lymphocytes (patients suffering from hemochromatosis); test: Cell survival of control T lymphocytes, annexin/propidium iodide flow cytometry; assay type: cell-based, human; conditions: 40 μM peptide, 4 hours of culture, cells not labeled with annexin or propidium iodide
Method: FIG. 7: Activity of the A1WT peptide on cells of lymphocytic, lymphoid, gastric, colonic or renal origin The cells are prepared and placed in culture (see Materials and Methods) and then incubated for 4 H with the A1WT or A1 YALA peptide. The percentage cell survival corresponds to the percentage of cells labeled neither with annexin nor with propidium iodide, evaluated by flow cytometry. The names of the pathological conditions from which the patients from whom the samples are taken are suffering are indicated under the figure. The control T (L.T.) and B (L.B.) lymphocytes are taken from patients suffering from a disease not related to a lymphocytic pathological condition (hemochromatosis).
The control B lymphocytes and T lymphocytes originate from peripheral blood samples from patients suffering from hemochromatosis, provided by the CTS transfusion center in Brest. The B and T lymphocytes were isolated using the Rosett-Sep kit (Stemcell Technologies) according to the supplier's recommendations.
as §1, §2, §3

[3] = tested on: Jok cells (cell line derived from B lymphocytes); test: Cell survival of Jok cells, annexin/propidium iodide flow cytometry; assay type: cell-based, human; conditions: for cell effect Jok 20 (survival): 20 μM peptide; for cell effect Jok 20 (survival) / cell effect Jok 40 (survival): 4 hours of culture, cells not labeled with annexin or propidium iodide; for cell effect Jok 40 (survival): 40 μM peptide; for effect of the peptide on cell mortality, in words (relative to A1 WT IRS): 4 hours, FIG. 9
Method: The cells are treated as indicated for FIG. 7, with the CLL cells, control T lymphocytes and Jok lymphocytes, which are incubated with the A1 WT IRS peptide and derivatives thereof described in table 1. The Jok cells were incubated either with 20 μM (JOK 20) or with 40 μM (JOK 40) of each of the peptides. In the interests of simplifying the legend, the A1 WT IRS peptide is referred to as “WT”. Likewise, the derivatives thereof are referred to by the name of the mutations (A1 K3I IRS is referred to as “K3I”, for example).
as §1, §2, §3
The peptides were tested on B lymphocytes from patients suffering from chronic lymphoid leukemia, control T lymphocytes, or Jok cells (cell line derived from B lymphocytes). The experiment was repeated three times for each type of cell tested.

[4] = tested on: control T lymphocytes (patients suffering from hemochromatosis); test: Cell survival of control T lymphocytes, annexin/propidium iodide flow cytometry; assay type: cell-based, human; conditions: 40 μM, 4 hours; FIG. 9
[5] = concentration not given (20 or 40 μM)

Compound | cell effect CLL 40 (survival) ([1]; 40 μM peptide) | effect of the peptide on cell mortality, in words (relative to A1 WT IRS) [1] | cell effect LT 40 (survival) [2] | cell effect Jok 20 (survival) [3] | cell effect Jok 40 (survival) [3] | effect of the peptide on cell mortality, in words (relative to A1 WT IRS) [4] | cell survival with emetine alone ([1]; 100 μM emetine, after 4 H of incubation (from 97%), FIG. 6) | effect of the peptide on cell mortality, in words (relative to A1 WT IRS) ([3]; 20 μM) | effect of the peptide on cell mortality, in words (relative to A1 WT IRS) ([3]; 40 μM) | effect of the peptide on cell mortality, in words (relative to A1 WT IRS) [3, 5] | effect on percentage cell survival ([1]; 40 μM peptide, 4 H and 24 H, FIG. 3) | action of the peptide on cell survival, in words, cell type not given ([1]; Example 6 (CLL cells, control T lymphocytes, Jok cells))
RRKYGRAFLLFRFYIRS [A1 D7A IRS] | + (+: survival <25%) | does not modify the action | + (+: survival <25%) | + (+: survival <25%) | + (+: survival <25%) | does not modify the action |  |  |  |  |  | 
CC[C@H]1CN2CCc3cc(OC)c(OC)cc3[C@@H]2C[C@@H]1C[C@H]1NCCc2cc(OC)c(OC)cc21 [emetine, reference compound] |  |  |  |  |  |  | 82% |  |  |  |  | 
GGKYGRDFLLRFRYIRS [A1 R1, 2G IRS] | − (−: survival >50%) | abolishes the effect | − (−: survival >50%) | − (−: survival >50%) | +/− (+/−: survival between 25 and 50%) | abolishes the effect |  | abolishes the effect | only partially decreased |  |  | 
RRKYGRDFLLRWRYIRS [A1 F12W IRS] | + (+: survival <25%) | does not modify the action | + (+: survival <25%) | + (+: survival <25%) | +/− (+/−: survival between 25 and 50%) | does not modify the action |  |  |  | does not modify the action |  | 
KKKYGRDFLLRFRYIRS [A1 R1, 2K IRS] | + (+: survival <25%) | decreases the effect | +/− (+/−: survival between 25 and 50%) | +/− (+/−: survival between 25 and 50%) | + (+: survival <25%) | decreases the effect |  | decreases the effect | the same effect as the A1 WT IRS peptide |  |  | 
RRKYARDFLLRFRYIRS [A1 G5A-IRS] | + (+: survival <25%) | slightly increases the effect | + (+: survival <25%) | + (+: survival <25%) | + (+: survival <25%) | slightly increases the effect |  |  |  | slightly increases the effect |  | 
RRIYGRDFLLRFRYIRS [A1 K3I IRS] | − (−: survival >50%) | loss of effect |  | +/− (+/−: survival between 25 and 50%) | + (+: survival <25%) |  |  | partially |  |  |  | 
RRKYSRDFLLRFRYIRS [A1 G5S IRS] | + (+: survival <25%) | slightly increases the effect | + (+: survival <25%) | + (+: survival <25%) | + (+: survival <25%) | slightly increases the effect |  |  |  | slightly increases the effect |  | 
RRKYGHDFLLRFRYIRS [A1 R6H IRS] | +/− (+/−: survival between 25 and 50%) | abolishes the effect | +/− (+/−: survival between 25 and 50%) | + (+: survival <25%) | + (+: survival <25%) | abolishes the effect |  |  |  | the effect is potentiated |  | 
KYGRDFLLRFRYIRS [A1 del2 IRS, deletion of the first two amino acids] | − (−: survival >50%) | loss of effect | − (−: survival >50%) | +/− (+/−: survival between 25 and 50%) | + (+: survival <25%) | loss of effect |  | loss of effect | considerable mortality |  |  | 
RIIYDRHFLLNMRYIRS [BPSg WT IRS, reference compound] |  |  |  |  |  |  |  |  |  |  | the percentage survival did not decrease | 
RRKYGREFLLRFRYIRS [A1 D7E IRS] | + (+: survival <25%) | does not modify the action | + (+: survival <25%) | + (+: survival <25%) | + (+: survival <25%) | does not modify the action |  |  |  | its effect is potentiated |  | 
RRRYGRDFLLRFRYIRS [A1 K3R IRS] | + (+: survival <25%) | does not modify the effect | + (+: survival <25%) | + (+: survival <25%) | + (+: survival <25%) | does not modify the effect |  |  |  | does not modify the effect |  | 
RRKYGRDFLLRKRYIRS [A1 F12K IRS] | − (−: survival >50%) | completely abolishes the action | − (−: survival >50%) | − (−: survival >50%) | − (−: survival >50%) | completely abolishes the action |  |  |  | completely abolishes the action |  | 
RRKYGKDFLLRFRYIRS [A1 R6K IRS] | + (+: survival <25%) | partially decreases the action | +/− (+/−: survival between 25 and 50%) | +/− (+/−: survival between 25 and 50%) | + (+: survival <25%) | partially decreases the action |  |  |  | partially decreases the action |  | 
RIKYDRKFLLDRRYIRS [BP2 I3K IRS, reference compound] | − (−: survival >50%) |  | − (−: survival >50%) | − (−: survival >50%) | − (−: survival >50%) |  |  |  |  |  |  | does not confer a better efficacy
